Test results from US20190031618A1, “BENZIMIDAZOLE DERIVATIVES USEFUL AS CB-1 INVERSE AGONISTS” (Janssen Pharmaceutica NV, priority 2015, published 2019).

Experiments:
[1] = target: Human CB1R (Cannabinoid receptor 1) (Homo sapiens, UniProt P21554); assay: CB-1 in vitro cAMP (HTRF) assay; type: cell-based; conditions: HEK cells, cAMP HTRF, 250 nM forskolin; mean where tested more than once; read-out: CB1 HEK_cAMP EC50
Excerpt: (§1) CB1 and CB2 receptors are Gi-coupled GPCR. Activation of CB1 and CB2 receptors results in a decrease in cAMP production. An inverse agonist of the CB1 or CB2 receptor results in the opposite effect, an increase of cAMP production. The principle of this assay is based on HTRF® technology (Homogeneous Time-Resolved Fluorescence). The method is a competitive immunoassay between native cAMP produced by cells and the cAMP labeled with the fluorophore d2. The tracer binding is quantified by a Mab anti-cAMP labeled with Eu3+TBP-NHS Cryptate (supplied as part of the assay kit). The specific signal (i.e. energy transfer) is inversely proportional to the concentration of cAMP in the standard or sample.
Human CB1R (Cannabinoid receptor 1) was stably transfected in HEK-293 cells (DiscoveRx, cat: 93-0200C1). Human CB2R (Cannabinoid receptor 2) was stably transfected in HEK-293 cells (DiscoveRx, cat: 93-0201C1).
One day prior to experiments media was warmed to 37° C. and the cryo-stored cells were thawed in a 37° C. water bath. The cells were then added to media (10× volume) and the mixture was centrifuged at 1000 RPM for 5 min. The supernate was removed and the cells were re-suspended in media. A sample of the cell suspension was evaluated on a Cedex XS automated cell counter (Innovatis Systems) to determine viable cells/ml. Additional media was added to the cells to achieve a final cell density of 4E5 cells/mL. […] Cells were removed from Row P (location of cAMP standards). […] The cell plates were lidded and stored for 15 minutes in a hood, then transferred to an incubator (37° C., 5% CO2, 95% humidity) overnight.
Test compounds (60 μL, 10 mM) were added to Column 1 and 13 (A1 through N1 and A13 through L13). Test compounds were serially diluted 1/3 by transferring and mixing 20 μl sample with 40 μL DMSO.
DMSO (40 μL) was added to wells of 384 well V bottom polystyrene plate: O2 through O11, M14 through M23, N14 through N23, and O14 through O23. […] The control was serially diluted 1/3 by transferring and mixing 20 μl sample with 40 μL DMSO. This process resulted 11 doses per control, 10 mM to 0.5 μM.
Cells plated the day prior to the assay in clear bottom plates were viewed on an inverse microscope to ensure confluency in the range of 60-75%.
A FLEXDROP (Perkin Elmer) was cleaned with ethanol then water, and primed with Buffer 2. A 384 well V bottom polypropylene plate containing d2 labelled cAMP and a second 384 well V bottom polypropylene plate containing anti-cAMP was prepared (50 μl per well). Media as “dumped” from the cell plate and 30 μL Buffer 1 was added to each well using a Multidrop. The content of the cell plate was again “dumped” and 10 μL Buffer 2 was added to each well using a Flexdrop. […] The cell plate was mixed (Speed 6, Lab-Line Instruments Titer Plate Shaker) and centrifuged (1000 RPMs, 1 min). […] The cell plate was again mixed (speed 6) and centrifuged (1000 RPMs, 1 min). The cell plate was incubated for 30 minutes at room temperature (˜27° C.). The contents of row P were removed and the cAMP standard dilutions were added in duplicate to Row P (P1-12 and P13-24). After incubation, 6 μL d2 labelled cAMP and 6 μL of Anti-cAMP were added to all wells of the cell plate using a BioMek FX (Beckman Coulter). The cell plate was again mixed (speed 6) and centrifuged (1000 RPMs, 1 min) and was incubated for 60 minutes in the dark at room Temp (˜27° C.).
After this final incubation, the cell plate was read in HTRF mode (fluorescence at 665 nm and 620 nm) on an Envision plate Reader (Perkin Elmer). The Envision reader outputs a ratio of channel 1/channel 2 fluorescence×10,000 (Normalized signal (NS)). Amount of cAMP in nM was calculated for each well (based on NS) from a cAMP standard curve located on each plate (at P1-12 and P13-24). EC50 values were determined from a 4-point fit (Hill equation) of a single 11-point compound dosing. Hill slope was fixed at 1.0.

[2] = target: Human CB2R (Cannabinoid receptor 2) (Homo sapiens, UniProt P34972); assay: CB-2 in vitro cAMP (HTRF) assay; type: cell-based; conditions: HEK cells, cAMP HTRF, 250 nM forskolin; mean where tested more than once; read-out: CB2 HEK_cAMP EC50
Excerpt: as §1
Human CB1R (Cannabinoid receptor 1) was stably transfected in HEK-293 cells (DiscoveRx, cat: 93-0200C1). Human CB2R (Cannabinoid receptor 2) was stably transfected in HEK-293 cells (DiscoveRx, cat: 93-0201C1). Cell cultures were maintained in media: DMEM (Invitrogen Cat#12430-054) supplemented with 10% HI FBS (Invitrogen Cat#16140-071), 1% L-glutamine (Invitrogen Cat#25030-081), 0.2 mg/ml Hygromycin B (Invitrogen Cat#10687-010), 600 μg/mL G418 (Invitrogen Cat#10131-035), and 1× Penn/Strep (Invitrogen 15140-122). After cell expansion, aliquots were cryo-stored in media containing 5% DMSO (Pierce Cat#20684).
One day prior to experiments media was warmed to 37° C. and the cryo-stored cells were thawed in a 37° C. water bath. The cells were then added to media (10× volume) and the mixture was centrifuged at 1000 RPM for 5 min. The supernate was removed and the cells were re-suspended in media. A sample of the cell suspension was evaluated on a Cedex XS automated cell counter (Innovatis Systems) to determine viable cells/ml. Additional media was added to the cells to achieve a final cell density of 4E5 cells/mL. The cells were then plated into 384 well PDL white solid bottom plates (Greiner, Cat#781945) at 20 μL per well using a Multidrop (Thermo Scientific). Cells were removed from Row P (location of cAMP standards). Two columns of cells were plated into a clear bottom 384 well PDL coated plate (Greiner, Cat#781944) to view confluence the day of the assay. The cell plates were lidded and stored for 15 minutes in a hood, then transferred to an incubator (37° C., 5% CO2, 95% humidity) overnight.
DMSO was added to all wells of 384 well V bottom polystyrene plate (Greiner, Cat#781280) except to columns 1 and 13, rows O and P and wells M13-M23 and N13-N23. Test compounds (60 μL, 10 mM) were added to Column 1 and 13 (A1 through N1 and A13 through L13). Test compounds were serially diluted 1/3 by transferring and mixing 20 μl sample with 40 μL DMSO.
DMSO (40 μL) was added to wells of 384 well V bottom polystyrene plate: O2 through O11, M14 through M23, N14 through N23, and O14 through O23. AM630 (also known as [6-iodo-2-methyl-1-[2-(4-morpholinyl)ethyl]-1H-indol-3-yl](4-methoxyphenyl)-methanone, Cayman Chemical, Cat#10006974) (60 μL, 10 mM) was added to O1; and 1-(2,4-dichlorophenyl)-7-[(4-fluorophenyl)methylene]-4,5,6,7-tetrahydro-N-1-piperidinyl-1H-benzimidazole-3-carboxamide (60 μL, 10 mM) was added to N13. The control was serially diluted 1/3 by transferring and mixing 20 μl sample with 40 μL DMSO. This process resulted 11 doses per control, 10 mM to […].
Cells plated the day prior to the assay in clear bottom plates were viewed on an inverse microscope to ensure confluency in the range of 60-75%. […]

Chain of Human CB1R (Cannabinoid receptor 1) (P21554 whole entry): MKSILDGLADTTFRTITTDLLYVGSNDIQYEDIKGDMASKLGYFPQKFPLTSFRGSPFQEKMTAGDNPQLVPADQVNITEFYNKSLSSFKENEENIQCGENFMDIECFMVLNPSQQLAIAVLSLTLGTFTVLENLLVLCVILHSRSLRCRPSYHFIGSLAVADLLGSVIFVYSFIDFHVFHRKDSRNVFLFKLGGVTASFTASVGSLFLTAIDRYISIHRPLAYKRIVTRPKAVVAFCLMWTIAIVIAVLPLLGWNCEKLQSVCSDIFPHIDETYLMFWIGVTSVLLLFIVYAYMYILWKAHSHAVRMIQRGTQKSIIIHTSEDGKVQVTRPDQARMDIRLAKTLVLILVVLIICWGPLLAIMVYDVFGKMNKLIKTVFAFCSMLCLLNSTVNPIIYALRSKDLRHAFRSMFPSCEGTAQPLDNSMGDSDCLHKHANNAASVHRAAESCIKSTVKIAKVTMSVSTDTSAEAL
Chain of Human CB2R (Cannabinoid receptor 2) (P34972 whole entry): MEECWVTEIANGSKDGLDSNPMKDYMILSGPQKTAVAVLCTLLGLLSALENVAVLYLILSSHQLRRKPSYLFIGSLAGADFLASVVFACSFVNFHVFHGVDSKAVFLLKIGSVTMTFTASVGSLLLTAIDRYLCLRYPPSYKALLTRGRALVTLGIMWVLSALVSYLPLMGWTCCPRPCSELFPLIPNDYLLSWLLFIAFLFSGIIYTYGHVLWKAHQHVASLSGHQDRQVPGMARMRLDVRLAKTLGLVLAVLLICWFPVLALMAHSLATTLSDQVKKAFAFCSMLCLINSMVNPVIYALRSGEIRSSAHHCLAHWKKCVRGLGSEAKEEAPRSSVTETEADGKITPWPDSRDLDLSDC

| SMILES | EC50 [1] [nM] | EC50 [2] [nM] |
| --- | --- | --- |
| O=C(OCc1ccccc1)N1CCC(n2c(C3CC3)nc3ccc(C(c4ccc(Cl)cc4)c4ccc(Cl)cc4)cc32)CC1 [Example 69] | 8.6 | 1210 |
| O=C(NCCO)c1cccc(CN2CCC(n3c(C4CC4)nc4ccc(C(c5ccc(Cl)cc5)c5ccc(Cl)cc5)cc43)CC2)c1 [Example 70] | 8.3 | 5820 |
| O=C(OC1CCCC1)N1CCC(n2c(C3CC3)nc3ccc(C(c4ccc(Cl)cc4)c4ccc(Cl)cc4)cc32)CC1 [Example 71] | 27.4 | 4880 |
| CCNC(=O)N1CCC(n2c(C3CC3)nc3ccc(C(c4ccc(Cl)cc4)c4ccc(Cl)cc4)cc32)CC1 [Example 73] | 18.5 | 5250 |
| O=C(NC1CCCC1)N1CCC(n2c(C3CC3)nc3ccc(C(c4ccc(Cl)cc4)c4ccc(Cl)cc4)cc32)CC1 [Example 74] | 70.6 | 5390 |
| O=C(NCc1ccccc1)N1CCC(n2c(C3CC3)nc3ccc(C(c4ccc(Cl)cc4)c4ccc(Cl)cc4)cc32)CC1 [Example 75] | 35.7 | 1150 |
| C#CCN1CCC(n2c(C3CC3)nc3ccc(C(c4ccc(Cl)cc4)c4ccc(Cl)cc4)cc32)CC1 [Example 76] | 6.7 | 2060 |
| O=C(O)CCc1nc2ccc(C(c3ccc(Cl)cc3)c3ccc(Cl)cc3)cc2n1C1CCN(S(=O)(=O)C(F)(F)F)CC1 [Example 78] | 151 | > 21000 |
| O=C(O)c1cccc(CN2CCC(n3c(C4CC4)nc4ccc(C(c5ccc(Cl)cc5)c5ccc(Cl)cc5)cc43)CC2)c1O [Example 79] | 32.6 | 5090 |
| O=C(O)c1ccc(C(F)(F)F)c(CN2CCC(n3c(C4CC4)nc4ccc(C(c5ccc(Cl)cc5)c5ccc(Cl)cc5)cc43)CC2)c1 [Example 80] | 86.6 | 11400 |
| O=C(O)c1cc(CN2CCC(n3c(C4CC4)nc4ccc(C(c5ccc(Cl)cc5)c5ccc(Cl)cc5)cc43)CC2)ccc1O [Example 81] | 14.1 | 3200 |
| O=C(O)c1ccc(O)c(CN2CCC(n3c(C4CC4)nc4ccc(C(c5ccc(Cl)cc5)c5ccc(Cl)cc5)cc43)CC2)c1 [Example 82] | 995 | > 42000 |
| O=C(O)c1cc(CN2CCC(n3c(C4CC4)nc4ccc(C(c5ccc(Cl)cc5)c5ccc(Cl)cc5)cc43)CC2)ccn1 [Example 83] | 42.6 | 11300 |
| FC(F)(F)c1ccccc1CN1CCC(n2c(C3CC3)nc3ccc(C(c4ccc(Cl)cc4)c4ccc(Cl)cc4)cc32)CC1 [Example 84] | 67.7 | > 10000 |
| O=C(O)c1cccc(CN2CCC(n3c(C4CC4)nc4ccc(C(c5ccc(Cl)cc5)c5ccc(Cl)cc5)cc43)CC2)c1F [Example 85] | 17.4 | 8100 |
| CC(c1ccc(C(=O)O)o1)N1CCC(n2c(C3CC3)nc3ccc(C(c4ccc(Cl)cc4)c4ccc(Cl)cc4)cc32)CC1 (stereo not drawn) [Example 86] | 15 | 10200 |
| CC(c1cccc(C(=O)O)c1)N1CCC(n2c(C3CC3)nc3ccc(C(c4ccc(Cl)cc4)c4ccc(Cl)cc4)cc32)CC1 (stereo not drawn) [Example 87] | 9 | 9000 |
| O=C(O)c1ccnc(CN2CCC(n3c(C4CC4)nc4ccc(C(c5ccc(Cl)cc5)c5ccc(Cl)cc5)cc43)CC2)c1 [Example 88] | 33 | > 10000 |
| Oc1cccc(CN2CCC(n3c(C4CC4)nc4ccc(C(c5ccc(Cl)cc5)c5ccc(Cl)cc5)cc43)CC2)c1 [Example 90] | 22.4 | > 10000 |
| O=C(O)c1cccc(CN2CCC(n3c(C4CC4)nc4ccc(C(c5ccc(Cl)cc5)c5ccc(Cl)cc5)cc43)CC2)c1Cl [Example 91] | 32.4 | 9400 |
| O=C(O)c1cc(CN2CCC(n3c(C4CC4)nc4ccc(C(c5ccc(Cl)cc5)c5ccc(Cl)cc5)cc43)CC2)cc(C(F)(F)F)c1 [Example 93] | 63.9 | 1750 |
| O=C(O)c1ccc(Cl)c(CN2CCC(n3c(C4CC4)nc4ccc(C(c5ccc(Cl)cc5)c5ccc(Cl)cc5)cc43)CC2)c1 [Example 94] | 26.1 | 4760 |
| O=C(O)c1cc(CN2CCC(n3c(C4CC4)nc4ccc(C(c5ccc(Cl)cc5)c5ccc(Cl)cc5)cc43)CC2)ccc1F [Example 95] | 11.2 | > 10000 |
| Cc1ccc(C(c2ccc(C)cc2)c2ccc3nc(C4CC4)n(C4CCN(Cc5cccc(C(=O)O)c5)CC4)c3c2)cc1 [Example 96] | 27.3 | 7920 |
| O=C(O)c1cccc(CN2CCC(n3c(C4CC4)nc4ccc(C(c5ccc(F)cc5)c5ccc(F)cc5)cc43)CC2)c1 [Example 97] | 18.7 | > 10000 |
| O=C(O)c1cccc(CN2CCC(n3c(C4CC4)nc4ccc(C(c5ccc(F)cc5)c5ccc(Cl)cc5)cc43)CC2)c1 (stereo not drawn) [Example 98] | 16.2 | > 10000 |
| O=C(O)c1cccc(CN2CCC(n3c(C4CC4)nc4ccc(C(c5ccc(Cl)cc5)c5ccc(C(F)(F)F)cc5)cc43)CC2)c1 (stereo not drawn) [Example 99] | 18.8 | 4740 |
